Experimental data taken from US20040023978A1, “Active salt forms with tyrosine kinase activity” (priority 2002, published 2004).
Where two headings read alike, the source gives them in different places.

Key:
[1] = Hygroscopicity, step isotherm at 25° C.; type: physicochemical; conditions: 90-95% RH
Method: The hygroscopicity of the mesylate salt was determined at 25° C. using a step isotherm program for relative humidities from 0 to 95% RH following drying at 40° C./0%RH for two hours.

[2] = Stability of the crystal form (XRPD, hot-stage XRPD)
From the text: The mesylate salt (Form A) was further studied using hot-stage XRPD. […] The dehydration could also be achieved by suspending the mesylate monohydrate in hot acetonitrile.

[3] = Solubility at room temperature (HPLC isocratic method); type: physicochemical

| Compound | weight gain [1] | stability of the form under ambient conditions ([2]; ambient conditions overnight) | behaviour of the aqueous solution on aging ([2]; water, aged for two days, recovered solid by XRPD the monohydrate (Form A)) | solubility ([3]; aqueous with cosolvent or surfactant or cyclodextrin, thermodynamic from solid, 10% HP-βCD, pH adjusted with 0.1 N HCl to about pH 3, room temperature, read-out: Solubility) | solubility ([3]; aqueous with cosolvent or surfactant or cyclodextrin, thermodynamic from solid, 15% HP-βCD, pH adjusted with 0.1 N HCl to about pH 3, room temperature, read-out: Solubility) | solubility ([3]; aqueous with cosolvent or surfactant or cyclodextrin, thermodynamic from solid, 20% HP-βCD, pH adjusted with 0.1 N HCl to about pH 3, room temperature, read-out: Solubility) | solubility ([3]; aqueous with cosolvent or surfactant or cyclodextrin, thermodynamic from solid, 25% HP-βCD, pH adjusted with 0.1 N HCl to about pH 3, room temperature, read-out: Solubility) | solubility ([3]; aqueous with cosolvent or surfactant or cyclodextrin, thermodynamic from solid, 25% PEG/10% EtOH, room temperature, read-out: Solubility) | solubility ([3]; aqueous with cosolvent or surfactant or cyclodextrin, thermodynamic from solid, 30% PG/10% EtOH, room temperature, read-out: Solubility) | solubility ([3]; organic solvent or mixture, thermodynamic from solid, Ethanol, room temperature, read-out: Solubility) | solubility ([3]; organic solvent or mixture, thermodynamic from solid, IPA, room temperature, read-out: Solubility) | solubility ([3]; organic solvent or mixture, thermodynamic from solid, PEG, room temperature, read-out: Solubility) | solubility ([3]; organic solvent or mixture, thermodynamic from solid, PG, room temperature, read-out: Solubility) | solubility ([3]; thermodynamic from solid, water, room temperature (Table I), read-out: Solubility) | solubility ([3]; water (text b274), read-out: solubility in water) |
| --- | --- | --- | --- | --- | --- | --- | --- | --- | --- | --- | --- | --- | --- | --- | --- |
| 1-({2-[(5-cyano-1,3-thiazol-2-yl)amino]pyridin-. 4-yl}methyl)-4-[(methylamino)carbonyl]piperazin-1-ium methanesulfonate [dehydrated mesylate salt (Form B)] | about 1.2 % wt. | stable | a white precipitate was noticed |  |  |  |  |  |  |  |  |  |  |  |  |
| CNC(=O)N1CCN(Cc2ccnc(Nc3ncc(C#N)s3)c2)CC1.CS(=O)(=O)O [mesylate salt (Form A), 1-({2-[(5-cyano-1,3-thiazol-2-yl)amino]pyridin-4-yl}methyl)-4-[(methylamino)carbonyl]piperazin-1-ium methanesulfonate] |  |  |  | 27.1 mg/mL | 35.3 mg/mL | 40.7 mg/mL | 45 mg/mL | 11.6 mg/mL | 13.6 mg/mL | 0.98 mg/mL | 0.64 mg/mL | 1.41 mg/mL | 30.4 mg/mL | 6.65 mg/mL | 4.7 mg/mL |
